Assay results taken from US20260355136A1, “PROSTACYCLIN FOR TREATING PULMONARY HYPERTENSION” (Shanghai Forefront Pharma Co., Ltd., priority 2023, published 2026).

Experiments:
Assay type in all cases: in vivo, male Sprague-Dawley rats
MCT modeling rats [1] = experiment: Fulton index (RV/(LV+S)) measurement in MCT-modeled rats
Procedure: The Fulton index reflects the organ remodeling caused by PAH. […] This is a goal that current pharmaceutical drugs for treating PAH cannot achieve, but one that new drugs for PAH aim to reach.
(§1) Twenty-eight 7-week-old male Sprague-Dawley rats (average weight of 200-250 g) were purchased from Vital River and were raised at the experimental site for 1 week of acclimatization (temperature 20 °C-26 °C, humidity 30%-70%, light-dark cycle ratio 1:1) until they were 8 weeks old.
(§2) Twenty-eight rats were randomized into the following 6 groups, including dosing groups, positive control groups, a negative control group and a healthy control group, and each was marked with ear tags.
(§3) • (1) Preparation of monocrotaline (MCT) solution: An adequate amount of MCT was weighed into a 50 mL solution of 20% ethanol-normal saline. After gentle shaking, the solution was transferred to a 50-mL centrifuge tube, and placed tilted in a thermostatic shaker at 37 °C, 220 rpm for 12-14 hours to fully dissolve until no visible crystalline particles observed. • (2) Injection of MCT solution: The skin on the dorsal cervical region of the rats was gently lifted, MCT solution was subcutaneously injected at a dose of 60 mg/kg using a 1-mL syringe and the day was recorded as Day 0. • (3) Healthy control: The same volume of normal saline was injected in the same manner. […]
(§4) Starting from Day 14, the rats were weighed daily, and the corresponding solutions (test compound or normal saline) were administered intragastrically according to the grouping protocol until Day 27, for a total of 14 days; the intragastric dose was 0.5 mL/100 g, and the body weight and survival data of the rats were recorded. […]
After separating the heart, the non-ventricular parts (such as the atria, blood vessels, and valve rings) were cut off. […] RV/(LV+S) was calculated as the Fulton index. […]
(§5) Rats in Groups 3-6 were actually administered for 14 days, and all were measured and sampled on Day 27. […]

MCT modeling rats [2] = experiment: Hemodynamic measurement of right ventricular systolic pressure (RVSP) by right cardiac catheterization in MCT-modeled rats
Procedure: as §1, §2, §3, §4
(§6) Note: Due to the limited total amount of Compound 1, rats in Group 1 were actually administered for 13 days, rats in Group 2 were actually administered for 12 days, and all were measured and sampled on Day 27; rats in Groups 3-6 were actually administered for 14 days, and all were measured and sampled on Day 27.
as §5

[3] = Body weight of MCT-modeled rats; conditions: intragastric; for Body weight on Day 0: Day 0 = MCT injection, before dosing; for Body weight on Day 14: Day 14 = start of dosing; for Body weight at sampling: sampled on Day 27
Procedure: as §1, §2
• (1) Preparation of monocrotaline (MCT) solution: An adequate amount of MCT was weighed into a 50 mL solution of 20% ethanol-normal saline. After gentle shaking, the solution was transferred to a 50-mL centrifuge tube, and placed tilted in a thermostatic shaker at 37 °C, 220 rpm for 12-14 hours to fully dissolve until no visible crystalline particles observed. • (2) Injection of MCT solution: The skin on the dorsal cervical region of the rats was gently lifted, MCT solution was subcutaneously injected at a dose of 60 mg/kg using a 1-mL syringe and the day was recorded as Day 0. • (3) Healthy control: The same volume of normal saline was injected in the same manner.
According to the concentration of 0.6 mg/mL and 1.2 mg/mL (3-mg/kg/day and 6-mg/kg/day dose groups), appropriate amounts of the test compound were weighed and dissolved in corresponding volume of pure water by shaking to obtain transparent solution, respectively; • (2) The resulting solutions were stored in a 4 °C refrigerator. Remove and equilibrate to room temperature before use;
Starting from Day 14, the rats were weighed daily, and the corresponding solutions (test compound or normal saline) were administered intragastrically according to the grouping protocol until Day 27, for a total of 14 days; the intragastric dose was 0.5 mL/100 g, and the body weight and survival data of the rats were recorded.
as §6

CCCCC[C@H](O)CC[C@@H]1[C@H]2Cc3cccc(OCC(=O)O)c3C[C@H]2C[C@H]1O [Compound C1, Treprostinil sodium 5.5-hydrate]
Fulton index compared with healthy control group (MCT modeling rats [1]; 3 and 6 mg/kg): still higher than that of the healthy control group | Fulton index reduction of rat heart (MCT modeling rats [1]; 3 and 6 mg/kg): can significantly reduce the Fulton index of rat heart | Fulton index, difference between dosing groups (MCT modeling rats [1]; 6 vs 3 mg/kg): no significant difference in the effects between the two dosing groups | RVSP compared with healthy control group (MCT modeling rats [2]; 3 and 6 mg/kg): still higher than that in the healthy control group | RVSP reduction in rats (MCT modeling rats [2]; 3 and 6 mg/kg): can significantly reduce RVSP in rats | RVSP, difference between dosing groups (MCT modeling rats [2]; 6 vs 3 mg/kg): no significant difference in the effects between the two dosing groups | Body weight on Day 0 ([3]; 3 mg/kg/day group): 330 + 25.11 g | Body weight on Day 14 ([3]; 3 mg/kg/day group): 430 + 34.15 g | Body weight at sampling ([3]; 3 mg/kg/day): 431 + 58.03 g | Body weight on Day 0 ([3]; 6 mg/kg/day group): 316 + 4.35 g | Body weight on Day 14 ([3]; 6 mg/kg/day group): 413 + 15.81 g | Body weight at sampling ([3]; 6 mg/kg/day): 436 + 9.65 g
